Activity calls are given as the source filed them. The calls are words filed in the database; no cut-off is given here.
Legend:
[1] = tested on: Hep 3B2; assay: Decrease in AFP secretion in human Hep3B cells at 50 ug/ml by ELISA; assay type: functional, cell-based
[2] = tested on: Mus musculus; assay: Reduction in AFP secretion in Hep3B cells xenografted Balb/C mouse serum at 1 mg/kg, po administered 3 weeks after xenograft measured 21 days after treatment by ELISA; assay type: functional, organism-based; details: Hep 3B2
[3] = Antitumor activity against human Hep3B cells xenografted in Balb/C mouse assessed as tumor size at 1 mg/kg, po administered 3 weeks after xenograft measured 28 days after treatment (reference value: 24.2); assay type: functional, Hep 3B2
[4] = tested on: Mus musculus; assay: Reduction in AFP secretion in Hep3B cells xenografted Balb/C mouse serum at 0.1 mg/kg, po administered 3 weeks after xenograft measured 21 days after treatment by ELISA; assay type: functional, organism-based; details: Hep 3B2
[5] = target: T1, Ornithine aminotransferase, mitochondrial (Homo sapiens, UniProt P04181); assay: Inhibition of human recombinant OAT using 1 mM alpha-ketoglutarate as substrate
T1 sequence (P04181 whole entry): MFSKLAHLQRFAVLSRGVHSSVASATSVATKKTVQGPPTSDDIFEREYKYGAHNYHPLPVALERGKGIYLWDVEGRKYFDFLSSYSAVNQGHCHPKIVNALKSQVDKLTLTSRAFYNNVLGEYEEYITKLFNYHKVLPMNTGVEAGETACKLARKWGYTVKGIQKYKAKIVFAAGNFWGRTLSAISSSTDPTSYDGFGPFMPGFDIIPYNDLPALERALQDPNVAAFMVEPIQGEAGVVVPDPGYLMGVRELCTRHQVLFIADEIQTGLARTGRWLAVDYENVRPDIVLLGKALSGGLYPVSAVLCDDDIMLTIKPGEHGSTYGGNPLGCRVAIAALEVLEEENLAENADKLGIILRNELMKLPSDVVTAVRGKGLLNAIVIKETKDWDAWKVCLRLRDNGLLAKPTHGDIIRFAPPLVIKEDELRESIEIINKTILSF

[6] = target: Aspartate aminotransferase, cytoplasmic (Homo sapiens) (UniProt P17174); assay: Inhibition of aspartate aminotransferase (unknown origin) at 4 mM using 5.55 mM L-aspartate as substrate
[7] = tested on: HepG2; assay: Decrease in AFP secretion in human HepG2 cells at 50 ug/ml by ELISA; assay type: functional, cell-based
[8] = tested on: Mus musculus; assay: Reduction in AFP secretion in Hep3B cells xenografted Balb/C mouse serum at 1 mg/kg, po administered 3 weeks after xenograft measured 14 days after treatment by ELISA (reference value: 29155 pg/ml); assay type: functional, Hep 3B2
[9] = tested on: Mus musculus; assay: Reduction in AFP secretion in Hep3B cells xenografted Balb/C mouse serum at 0.1 mg/kg, po administered 3 weeks after xenograft measured 14 days after treatment by ELISA (reference value: 29155 pg/ml); assay type: functional, Hep 3B2
[10] = species: Homo sapiens; assay: Inhibition of alanine aminotransferase (unknown origin) at 4 mM using 5.55 mM L-alanine as substrate
[11] = Antitumor activity against human Hep3B cells xenografted in Balb/C mouse assessed as tumor size at 0.1 mg/kg, po administered 3 weeks after xenograft measured 28 days after treatment (reference value: 24.2); assay type: functional, Hep 3B2
[12] = Antiproliferative activity against human Hep3B cells after 48 hrs by [3H]-thymidine incorporation assay; assay type: functional, Hep 3B2
[13] = tested on: HepG2; assay: Effect AFP secretion in human HepG2 cells by ELISA; assay type: functional, cell-based
[14] = tested on: Hep 3B2; assay: Effect AFP secretion in human Hep3B cells by ELISA; assay type: functional, cell-based
[15] = tested on: Hepa1-6; assay: Effect AFP secretion in […] cells by ELISA; assay type: functional, cell-based
[16] = Antiproliferative activity against […] cells after 48 hrs by [3H]-thymidine incorporation assay; assay type: functional
[17] = tested on: Mus musculus; assay: Reduction in AFP secretion in Hep3B cells xenografted Balb/C mouse serum at 500 ug/kg, ip administered as single dose by ELISA; assay type: functional, organism-based; details: Hep 3B2

Sequence of Aspartate aminotransferase, cytoplasmic (Homo sapiens) (P17174 whole entry): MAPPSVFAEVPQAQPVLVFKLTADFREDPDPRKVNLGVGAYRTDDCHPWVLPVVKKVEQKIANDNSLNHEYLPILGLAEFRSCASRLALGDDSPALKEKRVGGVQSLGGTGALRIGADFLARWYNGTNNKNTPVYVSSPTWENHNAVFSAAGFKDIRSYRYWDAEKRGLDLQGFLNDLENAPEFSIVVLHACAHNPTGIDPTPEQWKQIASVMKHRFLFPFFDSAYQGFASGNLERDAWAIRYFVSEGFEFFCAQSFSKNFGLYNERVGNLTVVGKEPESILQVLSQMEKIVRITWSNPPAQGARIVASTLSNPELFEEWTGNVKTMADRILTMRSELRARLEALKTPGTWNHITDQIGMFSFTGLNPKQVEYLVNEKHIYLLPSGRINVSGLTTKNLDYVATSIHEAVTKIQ

Compound | inhibition [1] | inhibition [2] | fold change (FC) [3] | inhibition [4] | Ki [5] | inhibition [6] | inhibition [7] | Activity [8] | Activity [9] | inhibition [10] | fold change (FC) [11] | inhibition (INH) [12] | Activity [13] | Activity [14] | Activity [15] | inhibition (INH) [16] | inhibition [17]
N[C@H]1C[C@@H](C(=O)O)CC1=C(C(F)(F)F)C(F)(F)F | Active | Active | 3.1 | Active | 4.2 µM | inactive | Active | 24857 pg/mL | 24857 pg/mL | inactive | 4.5 |  |  |  |  |  | 
NC1C=CC=C(C(=O)O)C1 (stereo not drawn) [GABACULINE] |  |  |  |  | 2.1 µM |  |  |  |  |  |  |  |  |  |  |  | 
N[C@H]1C=C(C(=O)O)CCC1 [GABACULINE] |  |  |  |  |  |  |  |  |  |  |  | 43% | inactive | inactive | inactive | 43% | Active
